Laboratory results published in patent US20070128217A1 (priority 2003, published 2007).

How the values were obtained:
[1] = system: antibodies in sera from SARS patients (sera 1a, 1b, 2, 6, 37, 62, London, SARS-yellow, SARS-green); type: binding, human; set-up: Binding of serum 6 to linear peptides of protein X1 of SARS-CoV Urbani / Binding of serum 37 to linear peptides of protein X1 of SARS-CoV Urbani / Binding of serum 6 to looped/cyclic peptide (PEPSCAN-ELISA) / Binding of serum 37 to looped/cyclic peptide (PEPSCAN-ELISA) / Binding of serum 37 to looped/cyclic peptides of protein X1 of SARS-CoV Urbani / Binding of serum 6 to linear peptides of protein X2 / Binding of serum 37 to linear peptides of protein X2 / Binding of serum 37 to looped/cyclic peptides of protein X2 of SARS-CoV Urbani / Binding of serum 6 to linear peptides of protein M of SARS-CoV Urbani / Binding of serum 37 to linear peptides of protein M of SARS-CoV Urbani / Binding of serum 6 to looped/cyclic peptides of protein M of SARS-CoV Urbani / Binding of serum 37 to looped/cyclic peptides of protein M of SARS-CoV Urbani / Binding of serum 6 to linear peptides of protein X3 of SARS-CoV Urbani / Binding of serum 37 to linear peptides of protein X3 of SARS-CoV Urbani / Binding of serum 37 to looped/cyclic peptides of protein X3 of SARS-CoV Urbani / Binding of serum 6 to linear peptides of protein X4 of SARS-CoV Urbani / Binding of serum 37 to linear peptides of protein X4 of SARS-CoV Urbani / Binding of serum 37 to looped/cyclic peptides of protein X4 of SARS-CoV Urbani / Binding of serum 6 to linear peptides of protein X5 of SARS-CoV Urbani / Binding of serum 37 to linear peptides of protein X5 of SARS-CoV Urbani / Binding of serum 37 to looped/cyclic peptides of protein X5 of SARS-CoV Urbani / Binding of serum 6 to linear peptides of protein N of SARS-CoV Urbani / Binding of serum 37 to linear peptides of protein N of SARS-CoV Urbani / Binding of serum 6 to linear peptide (PEPSCAN-ELISA) / Binding of serum 1a to looped/cyclic peptides of protein N of SARS-CoV Urbani / Binding of serum 1b to looped/cyclic peptides of protein N of SARS-CoV Urbani / Binding of serum 2 to looped/cyclic peptides of protein N of SARS-CoV Urbani / Binding of serum 6 to looped/cyclic peptides of protein N of SARS-CoV Urbani / Binding of serum 37 to looped/cyclic peptides of protein N of SARS-CoV Urbani / Binding of serum 62 to looped/cyclic peptides of protein N of SARS-CoV Urbani / Binding of serum London to looped/cyclic peptides of protein N of SARS-CoV Urbani / Binding of serum SARS-green to looped/cyclic peptides of protein N of SARS-CoV Urbani: unit not given here
[2] = system: rabbit serum obtained by immunizing a rabbit with the SARS-CoV strain Frankfurt 1; type: binding; set-up: Binding of a rabbit serum to linear peptides / Binding of a rabbit serum to looped peptides / Rabbit serum linear peptides / Rabbit serum looped peptides / Binding of a rabbit serum to linear peptides of protein N of SARS-CoV Urbani (Rabbit serum linear peptides) / Binding of a rabbit serum to looped/cyclic peptides of protein N of SARS-CoV Urbani (Rabbit serum looped peptides): unit not given here
[3] = system: control sera (pooled serum of ten healthy LUMC hospital workers; commercial negative donor pooled serum from the Dutch bloodbank); type: binding, human; set-up: Binding of Control serum LUMC to linear peptides / Binding of Control serum Blood-bank to linear peptides / Binding of Control serum LUMC to looped peptides / Binding of Control Serum Blood-Bank to Looped peptides / Binding of Control serum LUMC to linear peptides of the protein M of SARS-CoV Urbani / Binding of Control serum Blood-bank to linear peptides of the protein M of SARS-CoV Urbani / Binding of Control serum LUMC to looped peptides of the protein M of SARS-CoV Urbani / Binding of Control Serum Blood-Bank to Looped peptides of the protein M of SARS-CoV Urbani: unit not given here

Sequence: ACRTIMRCWLCWKCK
- Binding of serum 1a to looped/cyclic peptide (PEPSCAN-ELISA) [1]: 0.7
- Binding of serum 1b to looped/cyclic peptide (PEPSCAN-ELISA) [1]: 0.9
- Binding of serum 2 to looped/cyclic peptide (PEPSCAN-ELISA) [1]: 0.6
- Binding of serum 6 to looped/cyclic peptide (PEPSCAN-ELISA) [1]: 0.3
- Binding of serum 37 to looped/cyclic peptide (PEPSCAN-ELISA) [1]: 0.8
- Binding of serum 62 to looped/cyclic peptide (PEPSCAN-ELISA) [1]: 0.5
- Binding of serum London to looped/cyclic peptide (PEPSCAN-ELISA) [1]: 0.2
- Binding of serum SARS-green to looped/cyclic peptide (PEPSCAN-ELISA) [1]: 1.2
- Binding of serum SARS-yellow to looped/cyclic peptide (PEPSCAN-ELISA) [1]: 0.7

Sequence: AGTHITMTTVYHITV
- Binding of a rabbit serum to linear peptides [2]: 0.7
- Binding of a rabbit serum to looped peptides [2]: 0.5

Sequence: ASPASTVHATATIPL
- Binding of a rabbit serum to linear peptides [2]: 1.4
- Binding of a rabbit serum to looped peptides [2]: 0.5

Sequence: ASTVHATATIPLQAS
- Binding of a rabbit serum to linear peptides [2]: 0.9
- Binding of a rabbit serum to looped peptides [2]: 0.6

Sequence: CPSGTYEGNSPFHPL
- Binding of Control Serum Blood-Bank to Looped peptides [3]: 0.8
- Binding of Control serum Blood-bank to linear peptides [3]: 0.7
- Binding of Control serum LUMC to linear peptides [3]: 0.6
- Binding of Control serum LUMC to looped peptides [3]: 0.8

Sequence: GFQFICNLLLLFVTI
- Binding of serum 1a to linear peptides of protein X1 of SARS-CoV Urbani [1]: 0.6
- Binding of serum 1a to looped/cyclic peptide (PEPSCAN-ELISA) [1]: 0.5
- Binding of serum 1b to linear peptides of protein X1 of SARS-CoV Urbani [1]: 0.5
- Binding of serum 1b to looped/cyclic peptide (PEPSCAN-ELISA) [1]: 0.3
- Binding of serum 2 to linear peptides of protein X1 of SARS-CoV Urbani [1]: 0.5
- Binding of serum 2 to looped/cyclic peptide (PEPSCAN-ELISA) [1]: 0.3
- Binding of serum 6 to linear peptides of protein X1 of SARS-CoV Urbani [1]: 0.4
- Binding of serum 6 to looped/cyclic peptide (PEPSCAN-ELISA) [1]: 0.3
- Binding of serum 37 to linear peptides of protein X1 of SARS-CoV Urbani [1]: 0.5
- Binding of serum 37 to looped/cyclic peptide (PEPSCAN-ELISA) [1]: 0.5
- Binding of serum 62 to linear peptides of protein X1 of SARS-CoV Urbani [1]: 0.6
- Binding of serum 62 to looped/cyclic peptide (PEPSCAN-ELISA) [1]: 0.5
- Binding of serum London to linear peptides of protein X1 of SARS-CoV Urbani [1]: 0.3
- Binding of serum London to looped/cyclic peptide (PEPSCAN-ELISA) [1]: 0.2
- Binding of serum SARS-green to linear peptides of protein X1 of SARS-CoV Urbani [1]: 0.2
- Binding of serum SARS-green to looped/cyclic peptide (PEPSCAN-ELISA) [1]: 0.2
- Binding of serum SARS-yellow to linear peptides of protein X1 of SARS-CoV Urbani [1]: 0.5
- Binding of serum SARS-yellow to looped/cyclic peptide (PEPSCAN-ELISA) [1]: 0.4
- Binding of Control Serum Blood-Bank to Looped peptides [3]: 0.4
- Binding of Control serum Blood-bank to linear peptides [3]: 0.4
- Binding of Control serum LUMC to linear peptides [3]: 0.5
- Binding of Control serum LUMC to looped peptides [3]: 0.5

Sequence: HRWHTMVQTGTPNVT
- Binding of Control Serum Blood-Bank to Looped peptides [3]: 0.4
- Binding of Control serum Blood-bank to linear peptides [3]: 0.8
- Binding of Control serum LUMC to linear peptides [3]: 0.4
- Binding of Control serum LUMC to looped peptides [3]: 0.4

Sequence: KQLLEQWNLVIGFLF
- Binding of serum 1a to linear peptides of protein M of SARS-CoV Urbani [1]: 0.7
- Binding of serum 1a to looped/cyclic peptides of protein M of SARS-CoV Urbani [1]: 0.7
- Binding of serum 1b to linear peptides of protein M of SARS-CoV Urbani [1]: 0.6
- Binding of serum 1b to looped/cyclic peptides of protein M of SARS-CoV Urbani [1]: 0.6
- Binding of serum 2 to linear peptides of protein M of SARS-CoV Urbani [1]: 0.4
- Binding of serum 2 to looped/cyclic peptides of protein M of SARS-CoV Urbani [1]: 0.5
- Binding of serum 6 to linear peptides of protein M of SARS-CoV Urbani [1]: 0.3
- Binding of serum 6 to looped/cyclic peptides of protein M of SARS-CoV Urbani [1]: 1.0
- Binding of serum 37 to linear peptides of protein M of SARS-CoV Urbani [1]: 0.3
- Binding of serum 37 to looped/cyclic peptides of protein M of SARS-CoV Urbani [1]: 0.5
- Binding of serum 62 to linear peptides of protein M of SARS-CoV Urbani [1]: 0.4
- Binding of serum 62 to looped/cyclic peptides of protein M of SARS-CoV Urbani [1]: 0.7
- Binding of serum London to linear peptides of protein M of SARS-CoV Urbani [1]: 0.3
- Binding of serum London to looped/cyclic peptides of protein M of SARS-CoV Urbani [1]: 0.3
- Binding of serum SARS-green to linear peptides of protein M of SARS-CoV Urbani [1]: 0.4
- Binding of serum SARS-green to looped/cyclic peptides of protein M of SARS-CoV Urbani [1]: 0.4
- Binding of serum SARS-yellow to linear peptides of protein M of SARS-CoV Urbani [1]: 0.2
- Binding of serum SARS-yellow to looped/cyclic peptides of protein M of SARS-CoV Urbani [1]: 0.8
- Binding of Control Serum Blood-Bank to Looped peptides of the protein M of SARS-CoV Urbani [3]: 0.6
- Binding of Control serum Blood-bank to linear peptides of the protein M of SARS-CoV Urbani [3]: 0.5
- Binding of Control serum LUMC to linear peptides of the protein M of SARS-CoV Urbani [3]: 0.6
- Binding of Control serum LUMC to looped peptides of the protein M of SARS-CoV Urbani [3]: 0.7

Sequence: LACPVLAAVYRINWV
- Binding of Control Serum Blood-Bank to Looped peptides of the protein M of SARS-CoV Urbani [3]: 0.7
- Binding of Control serum Blood-bank to linear peptides of the protein M of SARS-CoV Urbani [3]: 0.7
- Binding of Control serum LUMC to linear peptides of the protein M of SARS-CoV Urbani [3]: 0.6
- Binding of Control serum LUMC to looped peptides of the protein M of SARS-CoV Urbani [3]: 0.7

Sequence: LCKHKKVSTNLGTHS
- Binding of serum 1a to looped/cyclic peptides of protein X2 of SARS-CoV Urbani [1]: 0.3
- Binding of serum 1b to looped/cyclic peptides of protein X2 of SARS-CoV Urbani [1]: 0.4
- Binding of serum 2 to looped/cyclic peptides of protein X2 of SARS-CoV Urbani [1]: 0.3
- Binding of serum 6 to looped/cyclic peptides of protein X2 of SARS-CoV Urbani [1]: 0.3
- Binding of serum 37 to looped/cyclic peptides of protein X2 of SARS-CoV Urbani [1]: 0.3
- Binding of serum 62 to looped/cyclic peptides of protein X2 of SARS-CoV Urbani [1]: 0.4
- Binding of serum London to looped/cyclic peptides of protein X2 of SARS-CoV Urbani [1]: 0.3
- Binding of serum SARS-green to looped/cyclic peptides of protein X2 of SARS-CoV Urbani [1]: 0.3
- Binding of serum SARS-yellow to looped/cyclic peptides of protein X2 of SARS-CoV Urbani [1]: 0.5

Sequence: LLIQQWTQFMMSRRR
- Binding of Control Serum Blood-Bank to Looped peptides [3]: 0.6
- Binding of Control serum Blood-bank to linear peptides [3]: 0.5
- Binding of Control serum LUMC to linear peptides [3]: 0.4
- Binding of Control serum LUMC to looped peptides [3]: 0.5

Sequence: QLALYKGFQPICNLL
- Binding of serum 1a to linear peptides of protein X1 of SARS-CoV Urbani [1]: 0.6
- Binding of serum 1b to linear peptides of protein X1 of SARS-CoV Urbani [1]: 0.5
- Binding of serum 2 to linear peptides of protein X1 of SARS-CoV Urbani [1]: 0.4
- Binding of serum 6 to linear peptides of protein X1 of SARS-CoV Urbani [1]: 0.5
- Binding of serum 37 to linear peptides of protein X1 of SARS-CoV Urbani [1]: 0.6
- Binding of serum 62 to linear peptides of protein X1 of SARS-CoV Urbani [1]: 0.6
- Binding of serum London to linear peptides of protein X1 of SARS-CoV Urbani [1]: 0.2
- Binding of serum SARS-green to linear peptides of protein X1 of SARS-CoV Urbani [1]: 0.2
- Binding of serum SARS-yellow to linear peptides of protein X1 of SARS-CoV Urbani [1]: 0.5

Sequence: RTLSYYKLGASQPVG
- Binding of Control Serum Blood-Bank to Looped peptides of the protein M of SARS-CoV Urbani [3]: 0.6
- Binding of Control serum Blood-bank to linear peptides of the protein M of SARS-CoV Urbani [3]: 0.9
- Binding of Control serum LUMC to linear peptides of the protein M of SARS-CoV Urbani [3]: 0.8
- Binding of Control serum LUMC to looped peptides of the protein M of SARS-CoV Urbani [3]: 0.8

Sequence: TLGSITAQPVKTDNA
- Binding of Control Serum Blood-Bank to Looped peptides [3]: 0.6
- Binding of Control serum Blood-bank to linear peptides [3]: 0.5
- Binding of Control serum LUMC to linear peptides [3]: 0.7
- Binding of Control serum LUMC to looped peptides [3]: 0.6

Sequence: WQLALYKGFQFTCNL
- Binding of Control Serum Blood-Bank to Looped peptides [3]: 0.6
- Binding of Control serum Blood-bank to linear peptides [3]: 0.6
- Binding of Control serum LUMC to linear peptides [3]: 0.6
- Binding of Control serum LUMC to looped peptides [3]: 0.7
